Results published in patent US20240199598A1 (MITOIMMUNE THERAPEUTICS INC., priority 2021, published 2024).

Assays:
[1] = Physicochemical stability test of free form and 5 salts (60° C., 40° C./75% humidity, light); details: for Final purity: HPLC; for Chemical stability (purity change %/1 w), 40° C./75% RH / Chemical stability (purity change %/1 w), 60° C. / Chemical stability (purity change %/1 w), Light stability: summary Table 9; for Sensitivity to heat, humidity and light conditions (in words): 40° C./75% humidity
Description: In the case of a light stability test, the vial was stored in a light stability test chamber while being not closed with a lid, and exposed to a total illuminance of 1.2 million lux-hr. A vial light-shielded with aluminum foil was used as an experimental control (Dark control). For stability assessment, state assessment by visual observation, purity assessment using HPLC, and crystalline form assessment using XRPD were conducted, and results thereof are shown in Table 7. […] In FIGS. 19 to 30, “Light” represents light irradiation condition results.

[2] = Oral administration pharmacokinetic test using mice; details: mice, oral; for AUClast / Cmax / Tmax / t½: 10 mg/kg; for Pharmacokinetic test, t½: summary Table 9
[3] = Persistence of Crystalline form VIII under nitrogen and on exposure to air (XRPD); assay type: physicochemical
Description: A novel crystalline form was found by heating Crystalline form IV to remove water and maintaining the same for 10 minutes and named Crystalline form VIII.

[4] = Stability test of Crystalline form III of sulfate (light, dark, 60° C., 40° C./75% RH); assay type: physicochemical
Description: The chemical and physical stability of Crystalline form III were studied under conditions of light, light-shielding, 60° C. and 40° C./75% RH for 1 month. […] In the light stability test, the crystalline form was stored in a light stability test chamber without a lid and thus exposed to a total illuminance of 1.2 million lux-hr, and a sample vial completely covered with an aluminum foil was regarded as a light-shielded control (Dark control). Appearance by visual observation for 2 weeks, 1 month, 2 months and 3 months was recorded, and purity assessment and XPRD data collection for residual solid contents were performed.

[5] = Dark control (light-shielded vial)

O=C(O)/C=C\C(=O)O.O=S1(=O)CCN(Cc2cc(NC3CCOCC3)c3[nH]c(-c4ccccc4)cc3c2)CC1 [Maleate]
Assay ([1]; 1.2 million lux-hr): 109.56% | Purity change ([1]; 1.2 million lux-hr): −0.17% | XRPD patterns ([1]; 1.2 million lux-hr): Pattern 7-I | Final purity ([1]; 1.2 million lux-hr): 96.86% | Appearance ([1]; 40° C./75% RH, 1 w): Yellow powder | Assay ([1]; 40° C./75% RH, 1 w): 108.85% | Purity change ([1]; 40° C./75% RH, 1 w): −0.77% | XRPD patterns ([1]; 40° C./75% RH, 1 w): Pattern 7-I | Final purity ([1]; 40° C./75% RH, 1 w): 96.26% | Chemical stability (purity change %/1 w), 40° C./75% RH ([1]; 40° C./75% RH, 1 w): −0.77% | Appearance ([1]; 60° C., 1 w): Yellow powder | Assay ([1]; 60° C., 1 w): 110.00% | Purity change ([1]; 60° C., 1 w): −0.44% | XRPD patterns ([1]; 60° C., 1 w): Pattern 7-I | Final purity ([1]; 60° C., 1 w): 96.59% | Chemical stability (purity change %/1 w), 60° C. ([1]; 60° C., 1 w): −0.44% | Sensitivity to heat, humidity and light conditions (in words) ([1]; 60° C., 1.2 million lux-hr): sensitive under all conditions including heat, humidity and light irradiation conditions | Assay ([1]; Dark control): 109.66% | Purity change ([1]; Dark control): +0.01% | XRPD patterns ([1]; Dark control): Pattern 7-I | Appearance [1, 5]: Yellow powder | Final purity ([1]; Dark control): 97.04% | Chemical stability (purity change %/1 w), Light stability [1]: −0.17% | AUClast [2]: 15780.45 ng·h/mL | Cmax [2]: 3115.9 ng/mL | Tmax [2]: 0.5 h | t½ [2]: 2.8 h | Pharmacokinetic test, t½ [2]: 3 h

Cl.O=S1(=O)CCN(Cc2cc(NC3CCOCC3)c3[nH]c(-c4ccccc4)cc3c2)CC1 [Hydrochloride]
Assay ([1]; 1.2 million lux-hr): 108.65% | Purity change ([1]; 1.2 million lux-hr): 0% | XRPD patterns ([1]; 1.2 million lux-hr): Pattern 1-I | Final purity ([1]; 1.2 million lux-hr): 99.95% | Appearance ([1]; 40° C./75% RH, 1 w): White powder | Assay ([1]; 40° C./75% RH, 1 w): 109.18% | Purity change ([1]; 40° C./75% RH, 1 w): −0.55% | XRPD patterns ([1]; 40° C./75% RH, 1 w): Pattern 1-I | Final purity ([1]; 40° C./75% RH, 1 w): 99.40% | Chemical stability (purity change %/1 w), 40° C./75% RH ([1]; 40° C./75% RH, 1 w): −0.05% | Appearance ([1]; 60° C., 1 w): White powder | Assay ([1]; 60° C., 1 w): 110.29% | Purity change ([1]; 60° C., 1 w): +0.05% | XRPD patterns ([1]; 60° C., 1 w): Pattern 1-I | Final purity ([1]; 60° C., 1 w): 100.0% | Chemical stability (purity change %/1 w), 60° C. ([1]; 60° C., 1 w): 0.18% | Sensitivity to heat, humidity and light conditions (in words) ([1]; 60° C., 1.2 million lux-hr): sensitive under a humidity condition | Assay ([1]; Dark control): 108.99% | Purity change ([1]; Dark control): +0.05% | XRPD patterns ([1]; Dark control): Pattern 1-I | Appearance [1, 5]: White powder | Final purity ([1]; Dark control): 100.0% | Chemical stability (purity change %/1 w), Light stability [1]: 0% | AUClast [2]: 12261.43 ng·h/mL | Cmax [2]: 2381.1 ng/mL | Tmax [2]: 2 h | t½ [2]: 3.0 h | Pharmacokinetic test, t½ [2]: 3 h

Cc1ccc(S(=O)(=O)O)cc1.O=S1(=O)CCN(Cc2cc(NC3CCOCC3)c3[nH]c(-c4ccccc4)cc3c2)CC1 [Tosylate]
Assay ([1]; 1.2 million lux-hr): 105.78% | Purity change ([1]; 1.2 million lux-hr): −0.24% | XRPD patterns ([1]; 1.2 million lux-hr): Pattern 6-I | Final purity ([1]; 1.2 million lux-hr): 98.77% | Appearance ([1]; 40° C./75% RH, 1 w): White powder | Assay ([1]; 40° C./75% RH, 1 w): 107.73% | Purity change ([1]; 40° C./75% RH, 1 w): −0.01% | XRPD patterns ([1]; 40° C./75% RH, 1 w): Pattern 6-I | Final purity ([1]; 40° C./75% RH, 1 w): 99.00% | Chemical stability (purity change %/1 w), 40° C./75% RH ([1]; 40° C./75% RH, 1 w): −0.01% | Appearance ([1]; 60° C., 1 w): White powder | Assay ([1]; 60° C., 1 w): 108.33% | Purity change ([1]; 60° C., 1 w): −0.05% | XRPD patterns ([1]; 60° C., 1 w): Pattern 6-I | Final purity ([1]; 60° C., 1 w): 98.96% | Chemical stability (purity change %/1 w), 60° C. ([1]; 60° C., 1 w): −0.05% | Sensitivity to heat, humidity and light conditions (in words) ([1]; 60° C., 1.2 million lux-hr): sensitive to light | Assay ([1]; Dark control): 108.98% | Purity change ([1]; Dark control): −0.03% | XRPD patterns ([1]; Dark control): Pattern 6-I | Appearance [1, 5]: White powder | Final purity ([1]; Dark control): 98.98% | Chemical stability (purity change %/1 w), Light stability [1]: −0.24% | AUClast [2]: 18850.98 ng·h/mL | Cmax [2]: 3151.3 ng/mL | Tmax [2]: 0.5 h | t½ [2]: 2.8 h | Pharmacokinetic test, t½ [2]: 3 h

CS(=O)(=O)O.O=S1(=O)CCN(Cc2cc(NC3CCOCC3)c3[nH]c(-c4ccccc4)cc3c2)CC1 [Mesylate]
Assay ([1]; 1.2 million lux-hr): 102.69% | Purity change ([1]; 1.2 million lux-hr): −0.82% | XRPD patterns ([1]; 1.2 million lux-hr): Pattern 4-I | Final purity ([1]; 1.2 million lux-hr): 99.18% | Purity decrease ([1]; 40° C. RH for 1 week): ≥ 3% | Appearance ([1]; 40° C./75% RH, 1 w): White powder | Assay ([1]; 40° C./75% RH, 1 w): 101.35% | Purity change ([1]; 40° C./75% RH, 1 w): −3.29% | XRPD patterns ([1]; 40° C./75% RH, 1 w): Pattern 4-I | Final purity ([1]; 40° C./75% RH, 1 w): 96.71% | Chemical stability (purity change %/1 w), 40° C./75% RH ([1]; 40° C./75% RH, 1 w): −3.29% | Appearance ([1]; 60° C., 1 w): White powder | Assay ([1]; 60° C., 1 w): 107.36% | Purity change ([1]; 60° C., 1 w): 0% | XRPD patterns ([1]; 60° C., 1 w): Pattern 4-I | Final purity ([1]; 60° C., 1 w): 100.0% | Chemical stability (purity change %/1 w), 60° C. ([1]; 60° C., 1 w): 0% | Sensitivity to heat, humidity and light conditions (in words) ([1]; 60° C., 1.2 million lux-hr): sensitive under humidity and light conditions | Assay ([1]; Dark control): 103.03% | Purity change ([1]; Dark control): 0% | XRPD patterns ([1]; Dark control): Pattern 4-I | Appearance [1, 5]: White powder | Final purity ([1]; Dark control): 100.0% | Chemical stability (purity change %/1 w), Light stability [1]: −0.82% | AUClast [2]: 10119.7 ng·h/mL | Cmax [2]: 2595.2 ng/mL | Tmax [2]: 0.5 h | t½ [2]: 2.3 h | Pharmacokinetic test, t½ [2]: 2 h

O=S1(=O)CCN(Cc2cc(NC3CCOCC3)c3[nH]c(-c4ccccc4)cc3c2)CC1 [Crystalline form VIII]
Time until the crystalline form disappeared ([3]; exposed to air, changes to Crystalline form IV): ≤ 1 h | Persistence of the crystalline form (in words) ([3]; nitrogen filling protection after cooling to 25° C.): maintained upon nitrogen filling protection after cooling to 25 °C

O=S(=O)(O)O.O=S1(=O)CCN(Cc2cc(NC3CCOCC3)c3[nH]c(-c4ccccc4)cc3c2)CC1
Area (%), impurity peak 3 (RRT 0.67) ([4]; 1.2 million lux-hr): 0.226% | Area (%), impurity peak 10 (RRT 1.24) ([4]; 1.2 million lux-hr): 0.221% | Area (%), impurity peak 12 (RRT 1.42) ([4]; 1.2 million lux-hr): 0.073% | Area of Sulfate (%), peak 7 (RRT 1.00, main peak) ([4]; 1.2 million lux-hr): 99.382% | Area (%), impurity peak 2 (RRT 0.63) ([4]; 40° C./75% RH, 1 M): 0.183% | Area (%), impurity peak 4 (RRT 0.68) ([4]; 40° C./75% RH, 1 M): 0.061% | Area (%), impurity peak 6 (RRT 0.91) ([4]; 40° C./75% RH, 1 M): 0.102% | Area (%), impurity peak 9 (RRT 1.12) ([4]; 40° C./75% RH, 1 M): 0.518% | Area (%), impurity peak 11 (RRT 1.32) ([4]; 40° C./75% RH, 1 M): 0.149% | Area of Sulfate (%), peak 7 (RRT 1.00, main peak) ([4]; 40° C./75% RH, 1 M): 98.711% | Area (%), impurity peak 1 (RRT 0.50) ([4]; 40° C./75% RH, 2 W): 0.069% | Area (%), impurity peak 3 (RRT 0.67) ([4]; 40° C./75% RH, 2 W): 0.226% | Area (%), impurity peak 10 (RRT 1.24) ([4]; 40° C./75% RH, 2 W): 0.321% | Area (%), impurity peak 12 (RRT 1.42) ([4]; 40° C./75% RH, 2 W): 0.084% | Area of Sulfate (%), peak 7 (RRT 1.00, main peak) ([4]; 40° C./75% RH, 2 W): 98.769% | Area (%), impurity peak 2 (RRT 0.63) ([4]; 60° C., 1 M): 0.168% | Area (%), impurity peak 4 (RRT 0.68) ([4]; 60° C., 1 M): 0.056% | Area (%), impurity peak 9 (RRT 1.12) ([4]; 60° C., 1 M): 0.325% | Area (%), impurity peak 11 (RRT 1.32) ([4]; 60° C., 1 M): 0.088% | Area of Sulfate (%), peak 7 (RRT 1.00, main peak) ([4]; 60° C., 1 M): 99.247% | Area (%), impurity peak 3 (RRT 0.67) ([4]; 60° C., 2 W): 0.231% | Area (%), impurity peak 5 (RRT 0.82) ([4]; 60° C., 2 W): 0.052% | Area (%), impurity peak 8 (RRT 1.11) ([4]; 60° C., 2 W): 0.114% | Area (%), impurity peak 10 (RRT 1.24) ([4]; 60° C., 2 W): 0.211% | Area (%), impurity peak 12 (RRT 1.42) ([4]; 60° C., 2 W): 0.054% | Area of Sulfate (%), peak 7 (RRT 1.00, main peak) ([4]; 60° C., 2 W): 99.237% | Area (%), impurity peak 3 (RRT 0.67) ([4]; Dark control): 0.209% | Area (%), impurity peak 8 (RRT 1.11) ([4]; Dark control): 0.069% | Area (%), impurity peak 12 (RRT 1.42) ([4]; Dark control): 0.078% | Area of Sulfate (%), peak 7 (RRT 1.00, main peak) ([4]; Dark control): 99.326% | Area (%), impurity peak 3 (RRT 0.67) ([4]; Initial): 0.204% | Area (%), impurity peak 8 (RRT 1.11) ([4]; Initial): 0.069% | Area (%), impurity peak 10 (RRT 1.24) ([4]; Initial): 0.215% | Area (%), impurity peak 12 (RRT 1.42) ([4]; Initial): 0.08% | Area of Sulfate (%), peak 7 (RRT 1.00, main peak) ([4]; Initial): 99.319%
